This passage reports Ki and AC50 results from patent publication US20240239812A1, “MACROCYCLIC 2-ALLYLTETRAHYDROFURANS AS INHIBITORS OF MCL-1” (JANSSEN PHARMACEUTICA NV, priority 2021, published 2024).

The target in test [1] is Myeloid Cell Leukemia 1 (Mcl-1) (Homo sapiens (Human), UniProt Q07820). In words: Terbium labeled Mcl-1 HTRF binding assay, displacement of Cy5-labeled BIM BH3 peptide. The note with it: 25 pM Tb-Mcl-1, 8 nM Cy5 Bim peptide, 60 minutes at room temperature, read-out: Tb-MCL1 Ki. As for the experimental part: Terbium labeled Myeloid Cell Leukemia 1 (Mcl-1) homogeneous time-resolved fluorescence (HTRF) binding assay utilizing the BIM BH3 peptide (H2N—(C/Cy5Mal) WIAQELRRIGDEFN-OH) as the binding partner for Mcl-1.
This assay evaluated inhibition of the BH3 domain: Mcl-1 interaction by measuring the displacement of Cy5-labeled BIM BH3 peptide (H2N—(C/Cy5Mal) WIAQELRRIGDEFN-OH) in the HTRF assay format.
The following assay and stock buffers were prepared for use in the assay: (a) Stock buffer: 10 mM Tris-HCl, pH=7.5+150 mM NaCl, filtered, sterilized, and stored at 4° C.; and (b) 1× assay buffer, where the following ingredients were added fresh to stock buffer: 2 mM dithiothreitol (DTT), 0.0025% Tween-20, 0.1 mg/mL bovine serum albumin (BSA). The 1×Tb-Mcl-1+Cy5 Bim peptide solution was prepared by diluting the protein stock solution using the 1× assay buffer (b) to 25 pM Tb-Mcl-1 and 8 nM Cy5 Bim peptide.
Using the Acoustic ECHO, 100 nL of 100× test compound(s) were dispensed into individual wells of a white 384-well Perkin Elmer Proxiplate, for a final compound concentration of 1× and final DMSO concentration of 1%. Inhibitor control and neutral control (NC, 100 nL of 100% DMSO) were stamped into columns 23 and 24 of assay plate, respectively. Into each well of the plate was then dispensed 10 μL of the 1×Tb-Mcl-1+Cy5 Bim peptide solution. The plate was centrifuged with a cover plate at 1000 rpm for 1 minute, then incubated for 60 minutes at room temperature with plates covered.
The TR-FRET signal was read on an BMG PHERAStar FSX MicroPlate Reader at room temperature using the HTRF optic module (HTRF: excitation: 337 nm, light source: laser, emission A: 665 nm, emission B: 620 nm, integration start: 60 μs, integration time: 400 μs).
The BMG PHERAStar FSX MicroPlate Reader was used to measure fluorescence intensity at two emission wavelengths—665 nm and 620 nm—and report relative fluorescence units (RFU) for both emissions, as well as a ratio of the emissions (665 nm/620 nm)*10,000. The RFU values were normalized to percent inhibition as follows:
% inhibition(((NC−IC)−(compound−IC))/(NC−IC))*100
where IC (inhibitor control, low signal)=mean signal of 1× Tb-MCl-1+Cy5 Bim peptide+inhibitor control or 100% inhibition of Mcl-1; NC (neutral control, high signal)=mean signal 1×Tb-MCl-1+Cy5 Bim peptide with DMSO only or 0% inhibition
An 11-point dose response curve was generated to determine IC50 values (using GenData) based on the following equation:
where Y=% inhibition in the presence of X inhibitor concentration; Top=100% inhibition derived from the IC (mean signal of Mcl-1+inhibitor control); Bottom=0% inhibition derived from the NC (mean signal of Mcl-1+DMSO); Hillslope=Hill coefficient; and IC50=concentration of compound with 50% inhibition in relation to top/neutral control (NC).
Representative compounds of the present invention were tested according to the procedure as described above, with results as listed in the Table below (n.d. means not determined).
(Time-resolved FRET reads energy transfer from a long-lived donor to a nearby acceptor.)

Test [2] relates to MOLP-8 human multiple myeloma cell line. Description: Caspase-Glo 3/7 apoptosis induction assay in MOLP-8 cells. It is filed as cell-based. The conditions noted are these: caspase-3/7 activity, 2 hours at 37° C., averaged over all runs on all batches, read-out: MOLP8 AC50. The source says: MCL-1 is a regulator of apoptosis and is highly over-expressed in tumor cells that escape cell death. The assay evaluates the cellular potency of small-molecule compounds targeting regulators of the apoptosis pathway, primarily MCL-1, Bfl-1, Bcl-2, and other proteins of the Bcl-2 family. Protein-protein inhibitors disrupting the interaction of anti-apoptotic regulators with BH3-domain proteins initiate apoptosis.
The Caspase-Glo® 3/7 Assay is a luminescent assay that measures caspase-3 and -7 activities in purified enzyme preparations or cultures of adherent or suspension cells. The assay provides a proluminescent caspase-3/7 substrate, which contains the tetrapeptide sequence DEVD. This substrate is cleaved to release aminoluciferin, a substrate of luciferase used in the production of light. Addition of the single Caspase-Glo® 3/7 Reagent in an “add-mix-measure” format results in cell lysis, followed by caspase cleavage of the substrate and generation of a “glow-type” luminescent signal.
This assay uses the MOLP-8 human multiple myeloma cell line, which is sensitive to MCL-1 inhibition.
Cell cultures were maintained between 0.2 and 2.0×10^6 cells/mL. The cells were harvested by collection in 50 mL conical tubes. The cells were then pelleted at 500 g for 5 mins before removing supernatant and resuspension in fresh pre-warmed culture medium. The cells were counted and diluted as needed.
The assay reagent was prepared by transferring the buffer solution to the substrate vial and mixing. The solution may be stored for up to 1 week at 4° C. with negligible loss of signal.
Compounds were delivered in assay-ready plates (Proxiplate) and stored at −20° C.
Assays always include 1 reference compound plate containing reference compounds. The plates were spotted with 40 nL of compounds (0.5% DMSO final in cells; serial dilution; 30 μM highest conc. 1/3 dilution, 10 doses, duplicates). The compounds were used at room temperature and 4 μL of pre-warmed media was added to all wells except column 2 and 23. The negative control was prepared by adding 1% DMSO in media. The positive control was prepared by adding the appropriate positive control compound in final concentration of 60 μM in media. The plate was prepared by adding 4 μL negative control to column 23, 4 μL positive control to column 2, and 4 μL cell suspension to all wells in the plate. The plate with cells was then incubated at 37° C. for 2 hours. The assay signal reagent is the Caspase-Glo solution described above, and 8 μL was added to all wells. The plates were then sealed and measured after 30 minutes.
The activity of a test compound was calculated as percent change in apoptosis induction as follows: […]

Read-outs that look alike come from different tables or passages of the source. Some results are limits rather than exact numbers.

Myeloid Cell Leukemia 1 (Mcl-1), sequence (Q07820 whole entry, the tested form may be a part): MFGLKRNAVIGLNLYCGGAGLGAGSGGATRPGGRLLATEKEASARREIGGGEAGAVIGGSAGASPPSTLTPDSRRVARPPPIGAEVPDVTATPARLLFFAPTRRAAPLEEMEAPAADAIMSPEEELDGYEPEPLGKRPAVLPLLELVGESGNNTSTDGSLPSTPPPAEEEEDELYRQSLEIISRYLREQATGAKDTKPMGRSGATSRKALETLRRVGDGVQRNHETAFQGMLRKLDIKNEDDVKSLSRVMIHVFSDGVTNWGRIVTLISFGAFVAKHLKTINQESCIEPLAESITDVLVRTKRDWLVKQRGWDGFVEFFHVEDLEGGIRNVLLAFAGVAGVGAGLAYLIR

For the compound `COc1nn(C)cc1C(=O)NS1(=O)=NC(=O)c2ccc3c(c2)N(C[C@@H]2CCO[C@H]2C(OC)/C(F)=C/C[C@H](C)C1)C[C@@]1(CCCc2cc(Cl)ccc21)CO3` (single isomer, unassigned) [Compound 26], the Ki in test [1] worked out at 5.12 nM. Besides, the AC50 in test [2] is more than 5000 nM.

Regarding `COc1nn(C)cc1C(=O)NS1(=O)=NC(=O)c2ccc3c(c2)N(C[C@@H]2CCO[C@H]2C(CN2CCN4CCOC[C@@H]4C2)(OC)/C(F)=C/C[C@H](C)C1)C[C@@]1(CCCc2cc(Cl)ccc21)CO3` (single isomer, unassigned) [Compound 27], the Ki in test [1] amounted to 0.048 nM. For the same compound, in test [2], the AC50 stood at 424 nM.

As to `COc1nn(C)cc1C(=O)NS1(=O)=NC(=O)c2ccc3c(c2)N(C[C@@H]2CCO[C@H]2C(CN2CCN4CCOC[C@@H]4C2)(OC)/C(F)=C/C[C@H](C)C1)C[C@@]1(CCCc2cc(Cl)ccc21)CO3` (single isomer, unassigned) [Compound 28], the Ki in test [1] came out at 0.011 nM. For the same compound, the AC50 in test [2] came out at 23.2 nM.

Take `COc1nn(C)cc1C(=O)NS1(=O)=NC(=O)c2ccc3c(c2)N(C[C@@H]2CCO[C@H]2C(CN2CCN4CCOC[C@@H]4C2)(OC)/C(F)=C/C[C@H](C)C1)C[C@@]1(CCCc2cc(Cl)ccc21)CO3` (single isomer, unassigned) [Compound 29]: in test [1], the Ki was determined as 0.17 nM. Further, in test [2], the AC50 was 702 nM.

`COc1nn(C)cc1C(=O)NS1(=O)=NC(=O)c2ccc3c(c2)N(C[C@@H]2CCO[C@H]2C(CN2CCN4CCOC[C@@H]4C2)(OC)/C(F)=C/C[C@H](C)C1)C[C@@]1(CCCc2cc(Cl)ccc21)CO3` (single isomer, unassigned) [Compound 30]: in test [1], the Ki was 0.014 nM. Moreover, the AC50 in test [2] was 28.6 nM.

On to `CO[C@H]1/C(F)=C/C[C@H](C)[C@@H](C)S(=O)(=O)NC(=O)c2ccc3c(c2)N(C[C@@H]2CCO[C@H]21)C[C@@]1(CCCc2cc(Cl)ccc21)CO3` [Compound 1], for which, in test [1], the Ki is 0.218 nM. Further, in test [2] (Homo sapiens, MOLP-8, 2 h), the AC50 came out at 191 nM.

For `CO[C@@H]1/C(F)=C/C[C@H](C)[C@@H](C)S(=O)(=O)NC(=O)c2ccc3c(c2)N(C[C@@H]2CCO[C@H]21)C[C@@]1(CCCc2cc(Cl)ccc21)CO3` [Compound 2], the Ki in test [1] stood at 1.13 nM. Further, the AC50 in test [2] (Homo sapiens, MOLP-8, 2 h) was determined as 1120 nM.

As to `CO[C@H]1/C=C/C[C@H](C)[C@@H](C)S(=O)(=O)NC(=O)c2ccc3c(c2)N(C[C@@H]2CCO[C@H]21)C[C@@]1(CCCc2cc(Cl)ccc21)CO3` [Compound 3], in test [1], the Ki came to 0.466 nM. Moreover, the AC50 in test [2] (Homo sapiens, MOLP-8, 2 h) came out at 432 nM.

With `COCC1/C=C/C[C@H](C)[C@@H](C)S(=O)(=O)NC(=O)c2ccc3c(c2)N(C[C@@H]2CCO[C@@H]12)C[C@@]1(CCCc2cc(Cl)ccc21)CO3` (some centres unmarked) [Compound 16], the Ki in test [1] came to 0.673 nM. For the same compound, the AC50 in test [2] (Homo sapiens, MOLP-8, 2 h) stood at 1820 nM.

For `COCC1/C=C/C[C@H](C)[C@@H](C)S(=O)(=O)NC(=O)c2ccc3c(c2)N(C[C@@H]2CCO[C@@H]12)C[C@@]1(CCCc2cc(Cl)ccc21)CO3` (some centres unmarked) [Compound 17], the Ki in test [1] is 0.678 nM. Further, the AC50 in test [2] worked out at 2820 nM.

As usually defined, the Ki is the dissociation constant of the complex between target and ligand, obtained from inhibition or displacement. For orientation: AC50 means the concentration giving half of the maximal activity seen.
